Consider two molecules from paper PMC11871328 (Communications Biology, 2025).

The conditions of data set [1]: in words; from earlier studies; cited from earlier work.
Another data set concerns BAG-1:HSP70 interaction. To be noted: in words; from earlier studies; cited from earlier work.
In data set [2] the test system is MCF-7 breast cancer cells. Kind of data set: MTT cell viability assay, MCF-7. Format: cell-based, human. To be noted: in words.

For the molecule `CCNc1ccc(-c2nc3ccc(C)cc3s2)cc1` [Thio-2, N-Ethyl-4-(6-methyl-1,3-benzothiazol-2-yl)aniline], the Solubility in water entry in data set [1] was “poor solubility in water”. Moreover, the “Inhibition of BAG-1:HSP70 interaction” value with BAG-1:HSP70 interaction is on record as “moderate inhibition”.

Take `N=C(N)NCCC[C@H](NC(=O)CN)C(=O)N[C@@H](CCCCN)C(=O)N[C@@H](CCCCN)C(=O)N[C@@H](CCCNC(=N)N)C(=O)N[C@@H](CCCNC(=N)N)C(=O)N[C@@H](CCC(N)=O)C(=O)N[C@@H](CCCNC(=N)N)C(=O)N[C@@H](CCCNC(=N)N)C(=O)N[C@@H](CCCNC(=N)N)C(=O)N1CCC[C@H]1C(=O)N[C@@H](CCC(N)=O)C(N)=O` [TAT only]: the “Effect on viability of MCF-7 cells” value in data set [2] is reported as “did not affect the viability of the cells”.
